Experiments:
[1] = test system: Russian thistle; experiment: Test D pre-/postemergence herbicide test; type: in vivo, Salsola kali; details: for Plant response rating: Postemergence, Russian Thistle, scale 0 to 100; for Plant response rating, Russian Thistle: Preemergence, scale 0 to 100 (0 no effect, 100 complete control)
From the text: (§1) Seeds of plant species selected from bluegrass (annual bluegrass, Poa annua), blackgrass (Alopecurus myosuroides), canarygrass (littleseed canarygrass, Phalaris minor), chickweed (common chickweed, Stellaria media), galium (catchweed bedstraw, Galium aparine), bromegrass, downy (downy bromegrass, Bromus tectorum), field poppy (Papaver rhoeas), field violet (Viola arvensis), foxtail, green (green foxtail, Setaria viridis), deadnettle (henbit deadnettle, Lamium amplexicaule), ryegrass, Italian (Italian ryegrass, Lolium multiflorum), kochia (Kochia scoparia), lambsquarters (Chenopodium album), oilseed rape (Brassica napus), pigweed (Amaranthus retroflexus), chamomile (scentless chamomile, Matricaria inodora), Russian thistle (Salsola kali), speedwell (bird's-eye speedwell, Veronica persica), barley, spring (spring barley, Hordeum vulgare), wheat, spring (spring wheat, Triticum aestivum), buckwheat, wild (wild buckwheat, Polygonum convolvulus), mustard, wild (wild mustard, Sinapis arvensis), oat, wild (wild oat, Avena fatua), radish, wild (wild radish, Raphanus raphanistrum), […]), barley, winter (winter barley, Hordeum vulgare), and wheat, winter (winter wheat, Triticum aestivum) were planted into a silt loam soil and treated preemergence with test chemicals formulated in a non-phytotoxic solvent mixture which included a surfactant. At the same time, these species were planted in pots containing Redi-Earth® planting medium (Scotts Company, 14111 Scottslawn Road, Marysville, Ohio 43041) comprising spaghnum peat moss, vermiculite, wetting agent and starter nutrients and treated with postemergence applications of the test chemicals formulated in the same manner. Plants ranged in height from 2 to 18 cm (1- to 4-leaf stage). Treated plants and controls were maintained in a controlled growth environment for 7 to 21 days after which time all species were compared to controls and visually evaluated. Plant response ratings, summarized in Table D, are based on a scale of 0 to 100 where 0 is no effect and 100 is complete control. A dash (-) response means no test result.

[2] = test system: mustard, wild; experiment: Test D pre-/postemergence herbicide test; type: in vivo, Sinapis arvensis; details: for Plant response rating: Mustard, Wild, scale 0 to 100; for Plant response rating, Mustard, Wild: scale 0 to 100 (0 no effect, 100 complete control)
From the text: as §1

[3] = test system: rice, transplanted; experiment: Test F flood (paddy) test; type: in vivo, Oryza sativa cv. Japonica—M202; details: 21 d, scale 0-100
How it was run: (§2)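 Greenhouse paddy, 30/27 °C day/night, 16-h light; sterilized Tama silt loam, 2.6% OM. Plants at 2.0–2.5 leaves; flood 3 cm, compound added directly to water. Visual score at 21 d, 0 = no effect, 100 = complete control, relative to untreated.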

[4] = test system: watergrass, late; experiment: Test F flood (paddy) test; type: in vivo, Echinochloa oryzicola; details: 21 d, scale 0-100
How it was run: as §2

SMILES | Plant response rating ([1]; 16 g ai/ha) | Plant response rating ([1]; 31 g ai/ha) | Plant response rating ([1]; 62 g ai/ha) | Plant response rating ([1]; 125 g ai/ha) | Plant response rating ([1]; 250 g ai/ha) | Plant response rating, Russian Thistle ([1]; 62 g ai/ha) | Plant response rating, Russian Thistle ([1]; 125 g ai/ha) | Plant response rating, Russian Thistle ([1]; 16 g ai/ha) | Plant response rating, Russian Thistle ([1]; 31 g ai/ha) | Plant response rating, Russian Thistle ([1]; 250 g ai/ha) | Plant response rating ([2]; Postemergence, 16 g ai/ha) | Plant response rating ([2]; Postemergence, 31 g ai/ha) | Plant response rating ([2]; Postemergence, 125 g ai/ha) | Plant response rating ([2]; Postemergence, 250 g ai/ha) | Plant response rating, Mustard, Wild ([2]; Preemergence, 62 g ai/ha) | Plant response rating, Mustard, Wild ([2]; Preemergence, 16 g ai/ha) | Plant response rating, Mustard, Wild ([2]; Preemergence, 31 g ai/ha) | Plant response rating ([2]; Preemergence, 125 g ai/ha) | Plant response rating ([2]; Preemergence, 250 g ai/ha) | also measured
O=C1NCC(c2ccc(F)c(F)c2)C1C(=O)Nc1ccccc1C(F)(F)F (racemic) [Compound 6] | 0 | 0 | 0 | 0 | 100 | 0 | 10 | 0 | 0 | 30 | 0 | 0 | 0 | 0 | 0 | 0 | 0 | 10 | 20 | 
O=C1NCC(c2cccc(C(F)F)c2)C1C(=O)Nc1ccccc1F (racemic) [Compound 210] |  |  |  |  |  |  |  |  |  |  |  |  |  |  |  |  |  |  |  | Plant response rating, Rice, Transplanted ([3]; 125 g ai/ha): 0; Plant response rating, Rice, Transplanted ([3]; 250 g ai/ha): 0; Plant response rating, Rice, Transplanted ([3]; 500 g ai/ha): 0; Plant response rating, Watergrass, Late ([4]; 125 g ai/ha): 55; Plant response rating, Watergrass, Late ([4]; 250 g ai/ha): 75; Plant response rating, Watergrass, Late ([4]; 500 g ai/ha): 90
CN1CC(c2ccc(F)c(F)c2)C(C(=O)Nc2cccc(F)c2F)C1=O (stereo not drawn) [Compound 303] |  |  |  |  |  |  |  |  |  |  |  |  |  |  |  |  |  |  |  | Plant response rating, Rice, Transplanted ([3]; 62 g ai/ha): 0; Plant response rating, Rice, Transplanted ([3]; 125 g ai/ha): 0; Plant response rating, Rice, Transplanted ([3]; 250 g ai/ha): 15; Plant response rating, Rice, Transplanted ([3]; 500 g ai/ha): 30; Plant response rating, Watergrass, Late ([4]; 62 g ai/ha): 95; Plant response rating, Watergrass, Late ([4]; 125 g ai/ha): 95; Plant response rating, Watergrass, Late ([4]; 250 g ai/ha): 100; Plant response rating, Watergrass, Late ([4]; 500 g ai/ha): 100
O=C1NCC(c2ccc(F)c(C(F)(F)F)c2)C1C(=O)Nc1cccc(F)c1F (racemic) [Compound 77] |  |  |  |  |  |  |  |  |  |  |  |  |  |  | 20 |  | 0 | 25 | 45 | 
O=C1NCC(c2ccc(C(F)(F)F)cc2)C1C(=O)Nc1ccccc1F (stereo not drawn) [Compound 231] |  | 20 | 35 | 35 | 35 | 5 | 15 |  | 0 | 30 |  | 35 | 65 | 75 | 10 |  | 0 |  | 15 | Plant response rating ([2]; Postemergence, 62 g ai/ha): 65; Plant response rating, Mustard, Wild ([2]; Preemergence, 125 g ai/ha): 0
O=C1NCC(c2cc(F)c(F)cc2F)C1C(=O)Nc1cccc(F)c1F (stereo not drawn) [Compound 50] | 5 | 0 | 10 | 5 |  | 0 | 0 | 0 | 0 |  | 40 | 60 | 40 |  | 0 | 50 |  | 80 |  | 
O=C1NCC(c2ccc(Cl)c(F)c2)C1C(=O)Nc1cccc(F)c1F (stereo not drawn) [Compound 52] | 0 | 0 | 0 | 0 | 0 | 0 | 20 | 0 | 0 | 30 | 0 | 10 | 20 | 25 | 0 | 0 | 0 | 0 | 10 | Plant response rating ([2]; Postemergence, 62 g ai/ha): 20

Reference: patent US10294202B2, “Pyrrolidinones as herbicides” (FMC Corporation, priority 2013, dated 2019)
